According to patent US20050101542A1, “Combination therapy for controlling appetites” (Regents of the University of California, priority 2002, published 2005):

Tests used:
[1] = target: T1, cannabinoid binding to rat brain membranes (Rattus norvegicus, UniProt P20272); experiment: Displacement of cannabinoid binding to rat brain membranes; settings: rat brain membranes in vitro
T1 construct: from tissue; host or cells: rat brain membranes

[2] = Other behavioral assays (elevated plus maze, open field, hot plate, rectal temperature); assay type: in vivo, rat
Experimental: Other behavioral assays. The elevated plus maze test was conducted as described (Navarro, et al., Neuroreport, 8:491-496 (1997)) after the administration of vehicle or OEA (20 mg per kg, i.p.). Horizontal activity in an open field (Beltramo et al., J. Neurosci., 20:3401-3407 (2000)) and pain threshold in the hot plate test (55° C.) (Beltramo et al., Science, 277:1094-1097 (1997)) were measured 15 min after injection of vehicle or OEA (20 mg per kg). Rectal temperature was measured using a digital thermometer (Martin-Calderón et al., Eur. J. Pharmacol., 344:77-86. (1998)).

[3] = Circulating OEA levels after OEA administration (HPLC/MS); assay type: in vivo; settings: rat, plasma, ip; 1 hr after 5 mg per kg i.p., rats; baseline 10.1±1.1
Experimental: HPLC/MS analyses. Plasma was prepared from blood obtained by cardiac puncture (Giuffrida, et al., Anal. Biochem., 280:87-93 (2000)) and CSF was collected from the cisterna magna using a 27G ½ needle (Precisionglide, USA). FAEs and NAPE were extracted from tissues with methanol/chloroform and fractionated by column chromatography (Giuffrida, et al., “Lipid Second Messengers” (ed. Laychock, S. G. & Rubin, R. P.) 113-133 (CRC Press LLC, Boca Raton, Fla., 1998)). FAEs were quantified by HPLC/MS, using an isotope dilution method (Giuffrida, et al., Anal. Biochem., 280:87-93 (2000)). Individual NAPE species were identified and quantified by HPLC/MS, using an external standard method (Calignano, et al., Nature, 408:96-101 (2000)).
OEA elicits hypophagia at physiologically relevant doses. […] Thus, the concentrations reached by OEA in blood during starvation can be sufficient to elicit notable behavioral responses.

Soleus muscle = experiment: [14C]oleate oxidation to CO2 in soleus muscle; assay type: cell-based, rat; settings: 10 μM, 30 min incubation
Source text: (§1) This example illustrates the effect of OEA on fat metabolism and methods for studying the same. Oleoylethanolamide (OEA) decreases body weight not only by suppressing appetite, but also by possibly enhancing body fat catabolism. The effects of OEA on fatty acid oxidation in major body-fat burning tissues (soleus muscle, liver, cultured cardiac myocytes and astrocytes) was examined. […] In addition, OEA induces a significant mobilization of triacylglycerol stores from primary white adipose tissue cells. Table 4 details the methods and effects of OEA on fatty acid oxidation in these cells. Structure-activity relationship experiments provide evidence that the effect of OEA on skeletal muscle fatty acid oxidation is specific (FIG. 8).

Adipocyte = experiment: Lypolysis (glycerol release) in adipocytes; assay type: cell-based, rat; settings: 30 min incubation
Source text: as §1

[4] = Acute feeding experiments in free-feeding mice (C57BL/6J, wild-type, PPARα-null); assay type: in vivo, mouse
Experimental: Acute experiments. Drugs or appropriate vehicles (saline, for CCK-8 and d-fenfluramine; dimethylsulfoxide/saline, 70/30, for all other agents; 4 ml-kg^−1; i.p.) were administered at 5:00-5:30 PM to free-feeding mice, which were habituated to the experimental setting.

iNOS = experiment: Transrepression of iNOS expression in mouse jejunum; assay type: in vivo; settings: jejunum of C57BL/6J mice; OEA or oleic acid 10, Wy-14643 30 mg kg^−1 i.p.
Experimental: Tissues were stored in RnaLater™ (Ambion), extracted total RNA with TRIzol™ (Invitrogen) and quantified it with Ribogreen™ (Molecular Probes). cDNA was synthesized by using SuperscriptII RNase H-reverse transcriptase (Invitrogen).
Reverse transcription of total RNA (2 μg) was performed using Oligo(dT)12-18 primer (0.2 μg) for 50 min at 42° C. Real Time Quantitative (RTQ) PCR was conducted using an ABI PRISM 7700 sequence detection system (Applied Biosystems). Primer/probe sets were designed using the Primer Express™ software and gene sequences available from the Genebank™ database. Primers and fluorogenic probes were synthesized by TIB (Adelphia). The primer/probe sequences for the mouse genes were:
RNA levels were normalized by using glyceraldehyde 3-phosphate dehydrogenase (GAPDH) as an internal standard. mRNA levels were measured by generating six-point serial standard curves using mouse total RNA. Estimates of relative mRNA abundance (in arbitrary units) were made by using the CT value (Schmittgen et al., 2000). Relative quantifications of RNAs of interest were made by using the 2^ΔCT formula, in which ΔCT was calculated by subtracting the CT value for GAPDH from the CT value for the gene of interest. This formula was validated for each primer/probe set by using six-point serial standard curves.

T1 sequence (P20272 whole entry): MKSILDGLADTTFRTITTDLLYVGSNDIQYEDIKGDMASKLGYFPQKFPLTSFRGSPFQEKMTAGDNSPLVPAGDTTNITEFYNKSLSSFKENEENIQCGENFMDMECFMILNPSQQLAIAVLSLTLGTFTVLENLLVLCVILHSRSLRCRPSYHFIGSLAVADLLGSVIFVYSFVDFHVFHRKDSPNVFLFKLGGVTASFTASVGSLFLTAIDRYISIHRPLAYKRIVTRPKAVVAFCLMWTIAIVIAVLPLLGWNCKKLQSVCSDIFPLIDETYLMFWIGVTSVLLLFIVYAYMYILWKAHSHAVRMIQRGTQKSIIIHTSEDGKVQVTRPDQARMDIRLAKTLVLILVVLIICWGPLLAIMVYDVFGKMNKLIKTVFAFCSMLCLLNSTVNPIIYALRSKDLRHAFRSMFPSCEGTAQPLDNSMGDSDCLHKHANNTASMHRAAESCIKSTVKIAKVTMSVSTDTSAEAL

CCCCCCCC/C=C\CCCCCCCC(=O)NCCO [OEA, Z-2-hydroxyethyl octadec-9-enamide]
displacement of cannabinoid binding [1]: did not displace | anxiety-like symptoms (elevated plus maze) ([2]; acute): did not produce | body temperature ([2]; acute, 5 or 20 mg per kg): did not alter | pain threshold (hot plate) ([2]; acute, 5 or 20 mg per kg): did not alter | motor activity (open field) ([2]; at a dose substantially higher than those required to produce hypophagia): reduced | concentration at 1 hr [3]: 16.1 ± 2.6 nM | Stimulatory effect of 10 μM OEA on [14C]oleate oxidation to CO2 (Soleus muscle): 36 ± 10 (n = 4) % | Stimulatory effect of 10 μM OEA on lypolysis (glycerol release) (Adipocyte): 38 ± 16 (n = 3) % | meal pattern analysis (eating latency, meal size, post-meal interval) ([4]; C57BL/6J mice): essentially identical | feeding in wild-type mice ([4]; OEA 10 mg-kg^−1 i.p.): reduces feeding | feeding in PPARα-deficient mice ([4]; OEA 10, Wy-14643 40, d-fenfluramine 4 mg-kg^−1, CCK-8 25 μg-kg^−1, i.p.): absent and not | iNOS expression (iNOS): significantly decreased
